Columns and labels:
rUGT2B7 = target: T1, rUGT2B7 (Homo sapiens, UniProt P16662); test: Inhibition of CBG glucuronidation by Compound 1; type: biochemical; details: for CBG detected, Percent of control / CBG glucuronide formed, Percent of control: rUGT2B7; for CBG detected / CBG glucuronide formed: rUGT2B7, 5 min
T1 sequence (P16662 24-529): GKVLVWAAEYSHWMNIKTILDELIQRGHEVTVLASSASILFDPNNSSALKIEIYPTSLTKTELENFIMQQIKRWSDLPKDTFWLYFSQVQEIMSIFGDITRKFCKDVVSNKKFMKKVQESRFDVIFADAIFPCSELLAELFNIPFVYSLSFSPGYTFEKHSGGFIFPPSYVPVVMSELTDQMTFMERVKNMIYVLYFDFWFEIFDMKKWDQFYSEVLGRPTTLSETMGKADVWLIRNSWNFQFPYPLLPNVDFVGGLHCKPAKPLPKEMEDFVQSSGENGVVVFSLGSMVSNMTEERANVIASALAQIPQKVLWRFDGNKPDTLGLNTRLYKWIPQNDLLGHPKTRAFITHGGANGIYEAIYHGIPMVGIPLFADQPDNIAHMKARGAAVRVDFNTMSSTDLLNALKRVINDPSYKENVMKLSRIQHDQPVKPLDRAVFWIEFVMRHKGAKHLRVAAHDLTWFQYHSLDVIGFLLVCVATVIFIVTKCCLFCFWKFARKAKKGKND
Protocol: The purpose of this experiment was to determine if Compound 1 can inhibit the glucuronidation of CBG, as both are substrates for the two major isoforms responsible for CBG glucuronidation.
The ability of Compound 1 to inhibit the metabolism of CBG by UGT1A9 and UGT2B7 enzymes was investigated to ascertain the ICso values for direct inhibition. The incubation conditions (substrate concentration, incubation time and protein concentration) were determined in Part 2 of the protocol such that CBG metabolism remains near initial rate conditions (e.g., 20-30% substrate loss).
Preliminary experiments were conducted in Part I of the protocol, first to establish the HPLC/MS/MS bioanalytical methods for CBG and CBG glucuronide. […] The second set of preliminary experiments (Part 2), as mentioned, were conducted to optimize the incubation conditions as described above. Incubations (at 37 C) contained Tris-HCl buffer (100 mM, pH 7.7), MgCl2 (10 mM), EDTA (1 mM, pH 7.4) and UDP-glucuronic acid (UDPGA, 10 mM). CBG was added to each incubation in DMSO such that the final percent of DMSO was 1% v/v, or less. Reactions were terminated by the addition of an equal volume of stop reagent, acetonitrile containing an internal standard. The samples were centrifuged (e.g., 920 RCF for 10 minutes at 10° C.), and the supernatant fractions were analyzed by LC-MS/MS to determine the amount of CBG remaining and formation of one metabolite (CBG glucuronide).
To examine its ability to act as a direct inhibitor of the above listed enzymes, Compound 1 was be added to recombinant human UGT enzyme together with CBG. Reactions were initiated with UDPGA and were carried out in duplicate. For all assays, reactions were terminated by the addition of acetonitrile with or without 2% v/v formic acid, including the internal standard.
Authentic metabolite reference standards were used for quantitation of the probe substrate metabolites and as internal standards. Based on the information obtained in the Part 2 experiments, the following table summarizes the experiments performed, assessing the inhibitory effects of Compound 1 was conducted as follows:
The amounts of CBG present at the end of the incubation periods was determined. For inhibition to have occurred, the amounts of CBG present at the end of the incubation period needed to increase, and the amounts of glucuronide formed needed to decrease.

[1] = system: lipopolysaccharide (LPS)-induced inflammation; test: Rat LPS model, serum pro-inflammatory cytokines; type: in vivo, Sprague Dawley rats; details: oral, 4 days; 2 h after LPS
Protocol: This assay was employed to determine the efficacies of CBG, compound 1, and compound 2 against lipopolysaccharide (LPS)-induced inflammation in Sprague Dawley rats.
Eight- to 10-week-old male rats were treated with CBG, Compound 1, and Compound 2, or a positive control (cyclosporin A) for four days prior to treatment with LPS. Twenty-eight (28) Sprague Dawley male rats, 8-10 weeks old, were used for this study. Animals were randomized by weight into one of 7 treatment groups as shown in Table 10 below and treated for 4 days with either vehicle control (Groups 1 and 2), Cyclosporin A (Neoral) (Group 3), CBG at 30 mg/kg (Group 4), Compound 1 at 31.5 mg/kg (Group 5), Compound 2 at 32.7 mg/kg (Group 6) or CBG at 30 mg/kg (intraperitoneal/IP; Group 7). Groups 1-6 were dosed for 4 days by oral gavage; group 7 was dosed for 4 days by IP injection. After the 4th injection, Groups 2-7 received a single IP injection of LPS at 5 mg/kg to induce inflammation. Body weight was recorded every other day starting on the day of or day prior to the first day of treatment. A terminal body weight was recorded. General health and clinical signs were recorded once daily. Blood was collected to isolate immune cells at 2 hours after the LPS injection. […]
Serum samples (N=82) were processed and shipped to Inotiv Boulder for analysis. […] The samples were analyzed for cytokine levels using the RECYTMAG-65K Luminex™ kit. […]

Structure (SMILES): CCCCCc1cc(O)c(C/C=C(\C)CCC=C(C)C)c(OC)c1 [Compound 1, (E)-2-(3,7-dimethylocta-2,6-dien-1-yl)-3-methoxy-5-pentylphenol]
- CBG detected, Percent of control (rUGT2B7; 10 μM CBG + 0.01 μM Compound 1): 103% of control
- CBG glucuronide formed, Percent of control (rUGT2B7; 10 μM CBG + 0.01 μM Compound 1): 104% of control
- CBG detected (rUGT2B7; 10 μM CBG + 0.01 μM Compound 1): 1370 pmol
- CBG glucuronide formed (rUGT2B7; 10 μM CBG + 0.01 μM Compound 1): 260000 area ratio
- CBG detected, Percent of control (rUGT2B7; 10 μM CBG + 0.03 μM Compound 1): 109% of control
- CBG glucuronide formed, Percent of control (rUGT2B7; 10 μM CBG + 0.03 μM Compound 1): 101% of control
- CBG detected (rUGT2B7; 10 μM CBG + 0.03 μM Compound 1): 1460 pmol
- CBG glucuronide formed (rUGT2B7; 10 μM CBG + 0.03 μM Compound 1): 252000 area ratio
- CBG detected, Percent of control (rUGT2B7; 10 μM CBG + 0.1 μM Compound 1): 106% of control
- CBG glucuronide formed, Percent of control (rUGT2B7; 10 μM CBG + 0.1 μM Compound 1): 103% of control
- CBG detected (rUGT2B7; 10 μM CBG + 0.1 μM Compound 1): 1410 pmol
- CBG glucuronide formed (rUGT2B7; 10 μM CBG + 0.1 μM Compound 1): 257000 area ratio
- CBG detected, Percent of control (rUGT2B7; 10 μM CBG + 0.3 μM Compound 1): 109% of control
- CBG glucuronide formed, Percent of control (rUGT2B7; 10 μM CBG + 0.3 μM Compound 1): 105% of control
- CBG detected (rUGT2B7; 10 μM CBG + 0.3 μM Compound 1): 1450 pmol
- CBG glucuronide formed (rUGT2B7; 10 μM CBG + 0.3 μM Compound 1): 262000 area ratio
- CBG detected, Percent of control (rUGT2B7; 10 μM CBG + 1 μM Compound 1): 109% of control
- CBG glucuronide formed, Percent of control (rUGT2B7; 10 μM CBG + 1 μM Compound 1): 102% of control
- CBG detected (rUGT2B7; 10 μM CBG + 1 μM Compound 1): 1460 pmol
- CBG glucuronide formed (rUGT2B7; 10 μM CBG + 1 μM Compound 1): 253000 area ratio
- CBG detected, Percent of control (rUGT2B7; 10 μM CBG + 3 μM Compound 1): 108% of control
- CBG glucuronide formed, Percent of control (rUGT2B7; 10 μM CBG + 3 μM Compound 1): 101% of control
- CBG detected (rUGT2B7; 10 μM CBG + 3 μM Compound 1): 1440 pmol
- CBG glucuronide formed (rUGT2B7; 10 μM CBG + 3 μM Compound 1): 252000 area ratio
- CBG detected, Percent of control (rUGT2B7; 10 μM CBG + 10 μM Compound 1): 111% of control
- CBG glucuronide formed, Percent of control (rUGT2B7; 10 μM CBG + 10 μM Compound 1): 96.0% of control
- CBG detected (rUGT2B7; 10 μM CBG + 10 μM Compound 1): 1470 pmol
- CBG glucuronide formed (rUGT2B7; 10 μM CBG + 10 μM Compound 1): 239000 area ratio
- inhibition of the conversion of CBG to a glucuronide (in words) (rUGT2B7; UGT2B7, 0.01-10 μM Compound 1): not an effective inhibitor

Structure (SMILES): CCCCCc1cc(OC)c(C/C=C(\C)CCC=C(C)C)c(OC)c1 [Compound 2, (E)-2-(3,7-dimethylocta-2,6-dien-1-yl)-1,3-dimethoxy-5-pentylbenzene]
- reduction of IL-1B and IFNy relative to CBG (in words) [1]: equal to or better than CBG

Source: patent US11992497B2 (priority 2021, dated 2024)
